Data as given in PubChem BioAssay (NCI).
Values joined by “and” are separate entries in the source; they are usually repeats but may differ in a detail not shown here. Equal values may be shown once.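 Compound exposure: 48 hours, 5 concentrations, 96-well plates. GI50 marks 50% less growth. TGI is the concentration that stops growth completely.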

Experiments:
Experiment in all cases: NCI tumour cell line growth inhibition, 48 h; in the data active = GI50 below about 0.43 µM; inactive = the rest
[1] = test system: HOP-62 NSCLC
[2] = test system: UACC-257 melanoma
[3] = test system: COLO 205 colon
[4] = test system: OVCAR-4 ovarian
[5] = test system: DU-145 prostate
[6] = test system: M14 melanoma
[7] = test system: TK-10 renal
[8] = test system: LOX IMVI melanoma
[9] = test system: 786-0 renal
[10] = test system: NCI/ADR-RES ovarian
[11] = test system: OVCAR-8 ovarian
[12] = test system: OVCAR-3 ovarian
[13] = test system: SW-620 colon
[14] = test system: UACC-62 melanoma
[15] = test system: CAKI-1 renal
[16] = test system: A498 renal
[17] = test system: SK-MEL-5 melanoma
[18] = test system: BT-549 breast
[19] = test system: EKVX NSCLC
[20] = test system: ACHN renal
[21] = test system: NCI-H522 lung
[22] = test system: SK-OV-3 ovarian
[23] = test system: SNB-19 CNS
[24] = test system: K-562 leukemia
[25] = test system: IGROV1 ovarian
[26] = test system: SNB-75 CNS
[27] = test system: RPMI-8226 leukemia
[28] = test system: U251 CNS
[29] = test system: MOLT-4 leukemia
[30] = test system: SF-539 CNS
[31] = test system: HCC-2998 colon
[32] = test system: RXF 393 renal
[33] = test system: HCT-116 colon
[34] = test system: SR leukemia
[35] = test system: SK-MEL-28 melanoma
[36] = test system: T-47D breast
[37] = test system: SN12C renal
[38] = test system: SK-MEL-2 melanoma
[39] = test system: A549 NSCLC
[40] = test system: NCI-H23 lung
[41] = test system: MDA-N
[42] = test system: OVCAR-5 ovarian
[43] = test system: HOP-92 NSCLC
[44] = test system: KM12 colon
[45] = test system: CCRF-CEM leukemia
[46] = test system: HT29 colon
[47] = test system: HCT-15 colon
[48] = test system: PC-3 prostate
[49] = test system: NCI-H226 lung
[50] = test system: HL-60(TB) leukemia
[51] = test system: NCI-H460 lung
[52] = test system: MCF7 breast
[53] = test system: MALME-3M melanoma
[54] = test system: MDA-MB-231 breast
[55] = test system: MDA-MB-435
[56] = test system: SF-295 CNS
[57] = test system: HS 578T breast
[58] = test system: UO-31 renal
[59] = test system: SF-268 CNS

C=CCN1C(=O)/C(=C/c2ccc(C)cc2)N=C1SC1OC(COC(C)=O)C(OC(C)=O)C(OC(C)=O)C1OC(C)=O (stereo not drawn)
> 100 µM and 85.6 µM: TGI [49]
> 100 µM and 63.4 µM: TGI [15]
64.1 µM: TGI [4]
> 100 µM: TGI [1] | TGI [2] | TGI [3] | TGI [5] | TGI [6] | TGI [7] | TGI [8] | TGI [9] | TGI [10] | TGI [11] | TGI [12] | TGI [13] | TGI [14] | TGI [17] | TGI [18] | TGI [19] | TGI [20] | TGI [21] | TGI [23] | TGI [24] | TGI [25] | TGI [26] | TGI [27] | TGI [28] | TGI [29] | TGI [30] | TGI [31] | TGI [33] | TGI [35] | TGI [36] | TGI [37] | TGI [38] | TGI [39] | TGI [40] | TGI [41] | TGI [42] | TGI [46] | TGI [47] | TGI [48] | TGI [50] | TGI [51] | TGI [52] | TGI [53] | TGI [54] | TGI [56]
> 100 µM and 53.4 µM: TGI [43]
> 76.5 µM and 44.3 µM: TGI [34]
inactive: GI50 [1] 5.17 µM and 47.4 µM | GI50 [2] > 73 µM and 32.9 µM | GI50 [8] > 100 µM and 31.7 µM | GI50 [10] > 100 µM and 32.5 µM | GI50 [11] 5.59 µM and 31.5 µM | GI50 [12] > 100 µM and 29.4 µM | GI50 [13] > 100 µM and 39.1 µM | GI50 [14] 3.83 µM and 37.1 µM | GI50 [15] 4.88 µM and 11.2 µM | GI50 [16] > 100 µM and 23.4 µM | GI50 [17] 11.2 µM and 32.9 µM | GI50 [20] > 27.6 µM and 67.3 µM | GI50 [21] 6.85 µM | GI50 [22] > 100 µM and 28.9 µM | GI50 [24] > 73.9 µM and 29.9 µM | GI50 [25] > 100 µM and 24.7 µM | GI50 [26] 3.7 µM and 20.2 µM | GI50 [27] > 100 µM and 20.2 µM | GI50 [29] > 59.9 µM and 14.6 µM | GI50 [30] 16.7 µM and 41.6 µM | GI50 [31] > 100 µM and 35.6 µM | GI50 [34] 26.5 µM and 10.8 µM | GI50 [38] > 100 µM and 38.3 µM | GI50 [40] > 100 µM and 27.1 µM | GI50 [43] > 100 µM and 11.6 µM | GI50 [45] 12.4 µM and 2.25 µM | GI50 [47] > 100 µM and 29.7 µM | GI50 [48] > 100 µM and 34.2 µM | GI50 [49] > 100 µM and 20.9 µM | GI50 [55] > 70.6 µM and 7.32 µM
> 100 µM and 69.5 µM: TGI [16]
> 100 µM and 21.4 µM: TGI [55]
> 100 µM and 17.9 µM: TGI [44]
> 100 µM and 85.4 µM: TGI [22]
> 39.5 µM and 61.6 µM: TGI [32]

COc1ccc(NC(C)c2ccncc2)cc1 (stereo not drawn)
> 100 µM: TGI [1] | TGI [3] | TGI [4] | TGI [5] | TGI [6] | TGI [7] | TGI [8] | TGI [9] | TGI [10] | TGI [11] | TGI [12] | TGI [57] | TGI [13] | TGI [15] | TGI [16] | TGI [17] | TGI [58] | TGI [18] | TGI [19] | TGI [20] | TGI [21] | TGI [23] | TGI [24] | TGI [26] | TGI [27] | TGI [28] | TGI [29] | TGI [30] | TGI [31] | TGI [32] | TGI [33] | TGI [35] | TGI [36] | TGI [37] | TGI [38] | TGI [59] | TGI [39] | TGI [40] | TGI [41] | TGI [42] | TGI [43] | TGI [44] | TGI [45] | TGI [46] | TGI [47] | TGI [48] | TGI [49] | TGI [51] | TGI [52] | TGI [53] | TGI [54] | TGI [55] | TGI [56]
65 µM: TGI [22]

COc1cccc2c1OCC1Cc3ccccc3OC21 (stereo not drawn)
64.8 µM: TGI [41]
70.1 µM: TGI [37]
72.8 µM: TGI [7]
52.2 µM: TGI [18]
98.3 µM: TGI [8]
88.8 µM: TGI [12]
> 100 µM: TGI [1] | TGI [5] | TGI [6] | TGI [9] | TGI [10] | TGI [11] | TGI [13] | TGI [14] | TGI [15] | TGI [16] | TGI [58] | TGI [19] | TGI [21] | TGI [22] | TGI [24] | TGI [25] | TGI [27] | TGI [28] | TGI [29] | TGI [30] | TGI [31] | TGI [33] | TGI [34] | TGI [36] | TGI [38] | TGI [59] | TGI [39] | TGI [40] | TGI [42] | TGI [44] | TGI [45] | TGI [46] | TGI [47] | TGI [48] | TGI [49] | TGI [52] | TGI [53] | TGI [54] | TGI [56]
30.8 µM: TGI [17]
96.1 µM: TGI [3]
75.3 µM: TGI [55]
65.3 µM: TGI [2]

CC1=NNC(=O)C1C1CC(c2c[nH]c3ccccc23)=NN=C1Cl (stereo not drawn)
81.6 µM: TGI [27]
53.6 µM: TGI [50]
80.6 µM: TGI [3]
75.8 µM: TGI [29]
> 100 µM: TGI [1] | TGI [2] | TGI [5] | TGI [6] | TGI [7] | TGI [8] | TGI [9] | TGI [10] | TGI [11] | TGI [12] | TGI [57] | TGI [13] | TGI [14] | TGI [15] | TGI [16] | TGI [17] | TGI [58] | TGI [18] | TGI [19] | TGI [20] | TGI [21] | TGI [22] | TGI [23] | TGI [25] | TGI [26] | TGI [28] | TGI [30] | TGI [32] | TGI [33] | TGI [35] | TGI [36] | TGI [37] | TGI [38] | TGI [59] | TGI [39] | TGI [40] | TGI [41] | TGI [42] | TGI [43] | TGI [46] | TGI [47] | TGI [48] | TGI [49] | TGI [51] | TGI [53] | TGI [54] | TGI [55] | TGI [56]
69.2 µM: TGI [45]
88.6 µM: TGI [24]
69.3 µM: TGI [44]
